Key:
[1] = molecular target: Recombinant human soluble BACE1 catalytic domain (Homo sapiens (Human), UniProt P56817); experiment: BACE1 HTRF FRET Assay; type: biochemical; conditions: for Ki: Ki calculated from IC50 using the Cheng-Prusoff equation, QSY7-APPswe-Eu substrate, pH 5.0, read-out: BACE-1 Ki; for inhibition at 10 µM: read-out: BACE-1 inhibition (printed in BACE-1 Ki column)
Text: Reagents: Na^+-Acetate pH 5.0; 1% Brij-35; Glycerol; Dimethyl Sulfoxide (DMSO); Recombinant human soluble BACE1 catalytic domain (>95% pure); APP Swedish mutant peptide substrate (QSY7-APP^swe-Eu): QSY7-EISEVNLDAEFC-Europium-amide.
A homogeneous time-resolved FRET assay can be used to determine IC50 values for inhibitors of the soluble human BACE1 catalytic domain. This assay monitors the increase of 620 nm fluorescence that resulted from BACE1 cleavage of an APPswedish APP^swe mutant peptide FRET substrate (QSY7-EISEVNLDAEFC-Europium-amide). This substrate contains an N-terminal QSY7 moiety that serves as a quencher of the C-terminal Europium fluorophore (620 nm Em). In the absence of enzyme activity, 620 nm fluorescence is low in the assay and increased linearly over 3 hours in the presence of uninhibited BACE1 enzyme. Inhibition of BACE1 cleavage of the QSY7-APP^swe-Eu substrate by inhibitors is manifested as a suppression of 620 nm fluorescence.
Varying concentrations of inhibitors at 3× the final desired concentration in a volume of 10 ul are preincubated with purified human BACE1 catalytic domain (3 nM in 10 μl) for 30 minutes at 30° C. in reaction buffer containing 20 mM Na-Acetate pH 5.0, 10% glycerol, 0.1% Brij-35 and 7.5% DSMO. Reactions are initiated by addition of 10 μl of 600 nM QSY7-APP^swe-Eu substrate (200 nM final) to give a final reaction volume of 30 μl in a 384 well Nunc HTRF plate. The reactions are incubated at 30° C. for 1.5 hours. The 620 nm fluorescence is then read on a Rubystar HTRF plate reader (BMG Labtechnologies) using a 50 millisecond delay followed by a 400 millisecond acquisition time window. Inhibitor IC50 values are derived from non-linear regression analysis of concentration response curves. Ki values are then calculated from IC50 values using the Cheng-Prusoff equation using a previously determined […] of 8 μM for the QSY7-APP^swe-Eu substrate at BACE1.

[2] = molecular target: purified human autoBACE-2 (Homo sapiens (Human), UniProt Q9Y5Z0); experiment: BACE-2 Assay (BACE-HTRF assay); type: biochemical; conditions: Ki calculated from IC50 using the Cheng-Prusoff equation; QSY7-EISEVNLDAEFC-Eu-amide substrate, pH 5.0
purified human autoBACE-2, sequence (Q9Y5Z0 63-518): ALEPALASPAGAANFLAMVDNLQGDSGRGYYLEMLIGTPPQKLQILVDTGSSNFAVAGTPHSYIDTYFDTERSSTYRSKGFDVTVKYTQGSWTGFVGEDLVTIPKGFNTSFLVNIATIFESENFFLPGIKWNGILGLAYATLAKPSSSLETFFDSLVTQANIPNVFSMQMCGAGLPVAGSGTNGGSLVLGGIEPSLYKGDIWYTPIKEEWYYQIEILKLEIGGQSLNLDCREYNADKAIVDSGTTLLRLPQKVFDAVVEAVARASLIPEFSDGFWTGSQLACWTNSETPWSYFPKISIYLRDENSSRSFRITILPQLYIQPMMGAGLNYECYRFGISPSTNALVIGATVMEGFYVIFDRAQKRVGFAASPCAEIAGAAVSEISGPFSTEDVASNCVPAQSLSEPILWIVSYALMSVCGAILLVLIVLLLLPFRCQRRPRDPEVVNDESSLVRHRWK
Experimental: Inhibitor IC50s at purified human autoBACE-2 are determined in a time-resolved endpoint proteolysis assay that measures hydrolysis of the QSY7-EISEVNLDAEFC-Eu-amide FRET peptide substrate (BACE-HTRF assay). BACE-mediated hydrolysis of this peptide results in an increase in relative fluorescence (RFU) at 620 nm after excitation with 320 nm light. Inhibitor compounds, prepared at 3× the desired final concentration in 1×BACE assay buffer (20 mM sodium acetate pH 5.0, 10% glycerol, 0.1% Brij-35) supplemented with 7.5% DMSO are preincubated with an equal volume of autoBACE-2 enzyme diluted in 1×BACE assay buffer (final enzyme concentration 1 nM) in black 384-well NUNC plates for 30 minutes at 30° C. […] DMSO is present at 5% final concentration in the assay. Following laser excitation of sample wells at 320 nm, the fluorescence signal at 620 nm is collected for 400 ms following a 50 μs delay on a RUBYstar HTRF plate reader (BMG Labtechnologies). Raw RFU data is normalized to maximum (1.0 nM BACE/DMSO) and minimum (no enzyme/DMSO) RFU values. IC50s are determined by nonlinear regression analysis (sigmoidal dose response, variable slope) of percent inhibition data with minimum and maximum values set to 0 and 100 percent respectively. Similar IC50s are obtained when using raw RFU data. The Ki values are calculated from the IC50 using the Cheng-Prusoff equation.

Recombinant human soluble BACE1 catalytic domain, sequence (P56817 75-416): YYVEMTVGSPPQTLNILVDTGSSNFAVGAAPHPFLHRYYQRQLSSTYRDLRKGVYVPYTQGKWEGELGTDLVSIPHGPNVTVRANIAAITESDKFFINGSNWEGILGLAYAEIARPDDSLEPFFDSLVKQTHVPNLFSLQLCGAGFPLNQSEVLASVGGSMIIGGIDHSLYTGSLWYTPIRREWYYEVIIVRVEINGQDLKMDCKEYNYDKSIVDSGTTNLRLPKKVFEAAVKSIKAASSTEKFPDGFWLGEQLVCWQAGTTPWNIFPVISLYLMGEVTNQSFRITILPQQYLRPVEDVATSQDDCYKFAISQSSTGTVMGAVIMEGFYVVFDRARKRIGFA

Compound | Ki [1] [nM] | Ki [2] [nM] | inhibition at 10 µM [1] [%]
C[C@H]1C[C@@H]2[C@](c3cc(Br)ccc3F)(CO1)NC(=N)C(C)(C)S2(=O)=O [Example 3, (4aS,7S,8aR)-4a-(5-bromo-2-fluorophenyl)-3-imino-2,2,7 trimethyloctahydropyrano[4,3-b][1,4]thiazine 1,1-dioxide] | 1210 | 399 | 
C[C@H]1C[C@@H]2[C@](c3cc(Oc4cc(C#N)ccn4)ccc3F)(CO1)NC(=N)C(C)(C)S2(=O)=O [Example 6, 2-(4-fluoro-3-((4aS,7S,8aR)-3-imino-2,2,7-trimethyl-1,1-dioxidooctahydropyrano[4,3-b][1,4]thiazin-4a-yl)phenoxy)isonicotinonitrile] | 23.6 | 19.2 | 
COc1ccc(F)c([C@]23CO[C@@H](c4ccc(F)cc4)C[C@H]2S(=O)(=O)C(C)(C)C(=N)N3)c1 [Example 12, (4aS,7R,8aR)-4a-(2-fluoro-5-methoxyphenyl)-7-(4-fluorophenyl)-3-imino-2,2-dimethyloctahydropyrano[4,3-b][1,4]thiazine 1,1-dioxide] | 184 | 96.3 | 
CC1(C)C[C@@H]2[C@](c3cc(Oc4ncccc4F)ccc3F)(CO1)NC(=N)C(C)(C)S2(=O)=O [Example 18, (4aS,8aR)-4a-{2-fluoro-5-[(3-fluoropyridin-2-yl)oxy]phenyl}-2,2,7,7-tetramethyltetrahydro-2H,5H-pyrano[4,3-b][1,4]thiazin-3(4H)-imine 1,1-dioxide] | 22.4 | 42.2 | 
C[C@@H]1C[C@@H]2[C@](c3ccccc3F)(CO1)NC(=N)C(C)(C)S2(=O)=O [Example 2, (4aS,7R,8aR)-4a-(2-fluorophenyl)-3-imino-2,2,7-trimethyloctahydropyrano[4,3-b][1,4]thiazine 1,1-dioxide] |  | 6260 | 50
CC(C)COc1ccc(F)c([C@]23COC(C)(C)C[C@H]2S(=O)(=O)C(C)(C)C(=N)N3)c1 [Example 23, (4aS,8aR)-4a-[2-fluoro-5-(2-methylpropoxy)phenyl]-2,2,7,7-tetramethyltetrahydro-2H,5H-pyrano[4,3-b][1,4]thiazin-3(4H)-imine 1,1-dioxide] | 172 | 66.7 | 
COc1ccc(F)c([C@]23CO[C@@H](C)C[C@H]2S(=O)(=O)C(C)(C)C(=N)N3)c1 [Example 10, (4aS,7S,8aR)-4a-(2-fluoro-5-methoxyphenyl)-3-imino-2,2,7-trimethyloctahydropyrano[4,3-b][1,4]thiazine 1,1-dioxide] | 681 | 249 | 
C[C@H]1C[C@@H]2[C@](c3cc(OCC4CC4)ccc3F)(CO1)NC(=N)C(C)(C)S2(=O)=O [Example 9, (4aS,7S,8aR)-4a-(5-(cyclopropylmethoxy)-2-fluorophenyl)-3-imino-2,2,7-trimethyloctahydropyrano[4,3-b][1,4]thiazine 1,1-dioxide] | 94.2 | 11.4 | 
C[C@H]1C[C@@H]2[C@](c3ccccc3F)(CO1)NC(=N)C(C)(C)S2(=O)=O [Example 1, (4aS,7S,8aR)-4a-(2-fluorophenyl)-3-imino-2,2,7-trimethyloctahydropyrano[4,3-b][1,4]thiazine 1,1-dioxide] | 363 | 72.5 | 
C[C@H]1C[C@@H]2[C@](c3cc(Oc4ncc(F)cc4F)ccc3F)(CO1)NC(=N)C(C)(C)S2(=O)=O [Example 7, (4aS,7S,8aR)-4a-(5-((3,5-difluoropyridin-2-yl)oxy)-2-fluorophenyl)-3-imino-2,2,7-trimethyloctahydropyrano[4,3-b][1,4]thiazine 1,1-dioxide] | 53.6 | 28.9 | 
CC(C)COc1ccc(F)c([C@]23CO[C@@H](C)C[C@H]2S(=O)(=O)C(C)(C)C(=N)N3)c1 [Example 4, (4aS,7S,8aR)-4a-(2-fluoro-5-isobutoxyphenyl)-3-imino-2,2,7-trimethyloctahydropyrano[4,3-b][1,4]thiazine 1,1-dioxide] | 354 | 31.6 | 
CC1(C)C[C@@H]2[C@](c3cc(OC4CCC4)ccc3F)(CO1)NC(=N)C(C)(C)S2(=O)=O [Example 24] | 183 | 109 | 
CC1(C)C[C@@H]2[C@](c3ccccc3F)(CO1)NC(=N)C(C)(C)S2(=O)=O [Example 17, (4aS,8aR)-4a-(2-fluorophenyl)-2,2,7,7-tetramethyltetrahydro-2H,5H-pyrano[4,3-b][1,4]thiazin-3(4H)-imine 1,1-dioxide] | 300 | 293 | 
CC1(C)C[C@@H]2[C@](c3cc(Oc4cc(F)cnc4F)ccc3F)(CO1)NC(=N)C(C)(C)S2(=O)=O [Example 21, (4aS,8aR)-4a-{5-[(2,5-difluoropyridin-3-yl)oxy]-2-fluorophenyl}-2,2,7,7-tetramethyltetrahydro-2H,5H-pyrano[4,3-b][1,4]thiazin-3(4H)-imine 1,1-dioxide] | 9.7 | 88 | 
COc1ccc(F)c([C@]23CO[C@@H](CO)C[C@H]2S(=O)(=O)C(C)(C)C(=N)N3)c1 [Example 16, (4aS,7R,8aR)-4a-(2-fluoro-5-methoxyphenyl)-7-(hydroxymethyl)-3-imino-2,2-dimethyloctahydropyrano[4,3-b][1,4]thiazine 1,1-dioxide] | 2860 | 2020 | 
CC1(C)C[C@@H]2[C@](c3cc(Oc4cc(C#N)ccn4)ccc3F)(CO1)NC(=N)C(C)(C)S2(=O)=O [Example 19] | 33.8 | 65.2 | 
C[C@@H]1C[C@@H]2[C@](c3cc(OCC4CC4)ccc3F)(CO1)NC(=N)C(C)(C)S2(=O)=O [Example 8, (4aS,7R,8aR)-4a-(5-(cyclopropylmethoxy)-2-fluorophenyl)-3-imino-2,2,7-trimethyloctahydropyrano[4,3-b][1,4]thiazine 1,1-dioxide] | 4480 | 1180 | 
CC(C)[C@H]1C[C@@H]2[C@](c3ccccc3F)(CO1)NC(=N)C(C)(C)S2(=O)=O [Example 25, (4aS,7R,8aR)-4a-(2-fluorophenyl)-2,2-dimethyl-7-(propan-2-yl)tetrahydro-2H,5H-pyrano[4,3-b][1,4]thiazin-3(4H)-imine 1,1-dioxide] | 185 | 195 | 
COc1ccc(F)c([C@]23CO[C@H](C)C[C@H]2S(=O)(=O)C(C)(C)C(=N)N3)c1 [Example 11, (4aS,7R,8aR)-4a-(2-fluoro-5-methoxyphenyl)-3-imino-2,2,7-trimethyloctahydropyrano[4,3-b][1,4]thiazine 1,1-dioxide] |  | 8400 | 27
CC1(C)C[C@@H]2[C@](c3cc(Oc4ncc(F)cc4F)ccc3F)(CO1)NC(=N)C(C)(C)S2(=O)=O [Example 20, (4aS,8aR)-4a-{5-[(3,5-difluoropyridin-2-yl)oxy]-2-fluorophenyl}-2,2,7,7-tetramethyltetrahydro-2H,5H-pyrano[4,3-b][1,4]thiazin-3(4H)-imine 1,1-dioxide] | 53.2 | 102 | 
CC1(C)C[C@@H]2[C@](c3cc(OCC4CC4)ccc3F)(CO1)NC(=N)C(C)(C)S2(=O)=O [Example 22, (4aS,8aR)-4a-[5-(cyclopropylmethoxy)-2-fluorophenyl]-2,2,7,7-tetramethyltetrahydro-2H,5H-pyrano[4,3-b][1,4]thiazin-3(4H)-imine 1,1-dioxide] | 120 | 35.6 | 
CC1(C)C(=N)N[C@@]2(c3cc(Oc4ncccc4F)ccc3F)CO[C@@H](c3ccc(F)cc3)C[C@H]2S1(=O)=O [Example 14, (4aS,7R,8aR)-4a-(2-fluoro-5-((3-fluoropyridin-2-yl)oxy)phenyl)-7-(4-fluorophenyl)-3-imino-2,2-dimethyloctahydropyrano[4,3-b][1,4]thiazine 1,1-dioxide] | 3.9 | 1.9 | 

From patent publication US10689401B2, “C5-C6-oxacyclic fused iminothiazine dioxide compounds bearing an ether linker as BACE inhibitors, compositions, and their use” (Merck Sharp & Dohme Corp., priority 2016, dated 2020)
